Results on 1 compound are retold here after article PMC1345695 (Nucleic Acids Research, 2006).

pKd: −log10 of the molar value.

In general, pKd refers to −log10 of the Kd, conventionally taken in molar units.

For this experiment, the target named is wt tetrameric Lac repressor (tet. LacR) (Escherichia coli, UniProt P03023). Nature of the experiment: band shift of operator DNA, IPTG titration, non-linear regression. The class given is binding.
Chain of wt tetrameric Lac repressor (tet. LacR) (P03023 whole entry): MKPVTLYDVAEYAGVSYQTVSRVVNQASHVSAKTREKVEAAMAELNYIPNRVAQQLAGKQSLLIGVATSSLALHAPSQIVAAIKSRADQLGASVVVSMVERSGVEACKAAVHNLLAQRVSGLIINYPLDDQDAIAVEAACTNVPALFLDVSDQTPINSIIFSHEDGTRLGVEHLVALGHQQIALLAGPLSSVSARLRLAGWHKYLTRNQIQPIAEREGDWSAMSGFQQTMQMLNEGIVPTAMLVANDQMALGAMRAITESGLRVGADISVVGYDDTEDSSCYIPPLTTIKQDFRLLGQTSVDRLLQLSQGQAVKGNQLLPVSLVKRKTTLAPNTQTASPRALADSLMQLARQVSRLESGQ

Turning to `CC(C)S[C@@H]1O[C@H](CO)[C@H](O)[C@H](O)[C@H]1O` [IPTG], the negative-log Kd (pKd) was 5.09.
